Test results: patent US20050112573A1, “Method of detecting toxic substance” (priority 2001, published 2005)

Tested on: yeast genes (level of expressed mRNA)
Test: DNA chip analysis of expressed mRNA of yeast genes after 2 h culture with a toxic chemical substance
Type: cell-based, Saccharomyces cerevisiae S288C
Procedure: Yeast (Saccharomyces cerevtisiae S288C (α SUC2mal mel gap2 CUP1)) were cultured at 25° C. on YPD medium (yeast extract 1%, polypepton 2%, glucose 2%). One of toxic chemical substances was added to the cell at logarithmic growth phase, and the cell was further cultured for two hours. Cell was cultured without any chemical substance in the same condition, and was used as control. Concentrations of the chemical substances were defined to inhibit the growth of the yeast but not lead to death.
After the completion of cultivation, the culture was centrifuged to collect the cells. To the cells, sodium acetate buffer (50 mM sodium acetate, 10 mM EDTA, 1% SDS) was added, and the mixture was shaken at 65° C. for five minutes, followed by returning to room temperature, and obtaining the supernatant, which procedure was repeated two times. To the supernatant, ½ amount of a solution of phenol/chloroform was added, and the mixture was centrifuged to give a supernatant, which was added with an equal amount of chloroform, and the mixture was centrifuged to give a supernatant. To the supernatant, an equal amount of isopropanol containing 0.3 M sodium acetate was added, and the mixture was allowed to stand at room temperature for 30 minutes, after which the mixture was centrifuged to give a sediment of the whole RNAs. Seventy % ethanol was added to the sediment, and the mixture was again centrifuged to give a sediment, which was then dried and dissolved in water. mRNA was isolated from the whole RNAs as followings. In view of the fact that a poly A chain is attached to the 3′ terminus of mRNA, a polynucleotide having a poly T structure which was immobilized on the surface of latex beads was used to trap the mRNA, and then the mRNA was washed and eluted with spine column (Oligotex-dT30<Super>mRNA Purification Kit, Takara). Reverse transcription of the mRNA was conducted with a reverse transcriptase (Super Script II Reverse Transcriptase; catalogue No. 18064-014, GibcoBRL) using fluorescence-labeled nucleotides to give cDNAs that were introduced with Cy3-dUTP or Cy5-dUTP during the reverse transcription.
The labeled cDNAs were dissolved in TE buffer (10 mM Tris-HCl/1 mM EDTA, pH8.0), and the solution was dropped on the DNA chip containing the whole genes of yeast (DNA Chip Research Inc. Japan) so that the cDNAs were hybridized on the DNA chip at 65° C. for over 12 hours. The fluoresces intensity of the DNA chip was read with a scanner, and the ratio relative to the fluorescence intensity resulting from the absence of chemical substance was estimated as the following, which is shown in Tables 1 to 9: [formula]
In the Tables, “Intensity” indicated in the rightmost column is a value of the level of expressed mRNA of each gene in control cells as divided by the average level of the expressions of the whole genes.

Compound: O=[N+]([O-])c1cc[n+]([O-])c2ccccc12 [(5), 4-nitroquinolin-N-oxide]
- The level of expressed mRNA in the presence of chemical substance/The level of expressed mRNA in the absence of chemical substance (yeast gene YKL013C): 1.9
- The level of expressed mRNA in the presence of chemical substance/The level of expressed mRNA in the absence of chemical substance (yeast gene YKL039W): 0.7
- The level of expressed mRNA in the presence of chemical substance/The level of expressed mRNA in the absence of chemical substance (yeast gene YKL041W): 1.3
- The level of expressed mRNA in the presence of chemical substance/The level of expressed mRNA in the absence of chemical substance (yeast gene YKL096W): 0.6
- The level of expressed mRNA in the presence of chemical substance/The level of expressed mRNA in the absence of chemical substance (yeast gene YKL139W): 2.8
- The level of expressed mRNA in the presence of chemical substance/The level of expressed mRNA in the absence of chemical substance (yeast gene YKL165C): 0.9
- The level of expressed mRNA in the presence of chemical substance/The level of expressed mRNA in the absence of chemical substance (yeast gene YKL193C): 1.1
- The level of expressed mRNA in the presence of chemical substance/The level of expressed mRNA in the absence of chemical substance (yeast gene YLR120C): 1.1
- The level of expressed mRNA in the presence of chemical substance/The level of expressed mRNA in the absence of chemical substance (yeast gene YLR136C): 1.6
- The level of expressed mRNA in the presence of chemical substance/The level of expressed mRNA in the absence of chemical substance (yeast gene YLR178C): 1.0
- The level of expressed mRNA in the presence of chemical substance/The level of expressed mRNA in the absence of chemical substance (yeast gene YLR250W): 1.4
- The level of expressed mRNA in the presence of chemical substance/The level of expressed mRNA in the absence of chemical substance (yeast gene YLR327C): 1.3
- The level of expressed mRNA in the presence of chemical substance/The level of expressed mRNA in the absence of chemical substance (yeast gene YLR356W): 1.1
- The level of expressed mRNA in the presence of chemical substance/The level of expressed mRNA in the absence of chemical substance (yeast gene YLR362W): 1.5
- The level of expressed mRNA in the presence of chemical substance/The level of expressed mRNA in the absence of chemical substance (yeast gene YLR391W): 1.2
- The level of expressed mRNA in the presence of chemical substance/The level of expressed mRNA in the absence of chemical substance (yeast gene YLR429W): 1.4
- The level of expressed mRNA in the presence of chemical substance/The level of expressed mRNA in the absence of chemical substance (yeast gene YMR004W): 1.0
- The level of expressed mRNA in the presence of chemical substance/The level of expressed mRNA in the absence of chemical substance (yeast gene YMR094W): 0.9
- The level of expressed mRNA in the presence of chemical substance/The level of expressed mRNA in the absence of chemical substance (yeast gene YMR104C): 0.7
- The level of expressed mRNA in the presence of chemical substance/The level of expressed mRNA in the absence of chemical substance (yeast gene YMR219W): 1.6
- The level of expressed mRNA in the presence of chemical substance/The level of expressed mRNA in the absence of chemical substance (yeast gene YMR226C): 0.9
- The level of expressed mRNA in the presence of chemical substance/The level of expressed mRNA in the absence of chemical substance (yeast gene YMR275C): 0.7
- The level of expressed mRNA in the presence of chemical substance/The level of expressed mRNA in the absence of chemical substance (yeast gene YMR276W): 1.3
- The level of expressed mRNA in the presence of chemical substance/The level of expressed mRNA in the absence of chemical substance (yeast gene YNL006W): 0.9
- The level of expressed mRNA in the presence of chemical substance/The level of expressed mRNA in the absence of chemical substance (yeast gene YNL007C): 1.2
- The level of expressed mRNA in the presence of chemical substance/The level of expressed mRNA in the absence of chemical substance (yeast gene YNL093W): 1.2
- The level of expressed mRNA in the presence of chemical substance/The level of expressed mRNA in the absence of chemical substance (yeast gene YNL333W): 1.5
- The level of expressed mRNA in the presence of chemical substance/The level of expressed mRNA in the absence of chemical substance (yeast gene YNR010W): 1.8
- The level of expressed mRNA in the presence of chemical substance/The level of expressed mRNA in the absence of chemical substance (yeast gene YNR069C): 1.4
- The level of expressed mRNA in the presence of chemical substance/The level of expressed mRNA in the absence of chemical substance (yeast gene YOL013C): 0.7
- The level of expressed mRNA in the presence of chemical substance/The level of expressed mRNA in the absence of chemical substance (yeast gene YOL164W): 1.6
- The level of expressed mRNA in the presence of chemical substance/The level of expressed mRNA in the absence of chemical substance (yeast gene YOR036W): 1.1
- The level of expressed mRNA in the presence of chemical substance/The level of expressed mRNA in the absence of chemical substance (yeast gene YOR117W): 1.2
- The level of expressed mRNA in the presence of chemical substance/The level of expressed mRNA in the absence of chemical substance (yeast gene YOR124C): 1.1
- The level of expressed mRNA in the presence of chemical substance/The level of expressed mRNA in the absence of chemical substance (yeast gene YOR132W): 1.1
- The level of expressed mRNA in the presence of chemical substance/The level of expressed mRNA in the absence of chemical substance (yeast gene YOR157C): 0.7
- The level of expressed mRNA in the presence of chemical substance/The level of expressed mRNA in the absence of chemical substance (yeast gene YOR181W): 0.7
- The level of expressed mRNA in the presence of chemical substance/The level of expressed mRNA in the absence of chemical substance (yeast gene YOR185C): 1.2
- The level of expressed mRNA in the presence of chemical substance/The level of expressed mRNA in the absence of chemical substance (yeast gene YOR198C): 0.8
- The level of expressed mRNA in the presence of chemical substance/The level of expressed mRNA in the absence of chemical substance (yeast gene YOR259C): 2.0
- The level of expressed mRNA in the presence of chemical substance/The level of expressed mRNA in the absence of chemical substance (yeast gene YOR261C): 1.5
- The level of expressed mRNA in the presence of chemical substance/The level of expressed mRNA in the absence of chemical substance (yeast gene YOR288C): 1.1
- The level of expressed mRNA in the presence of chemical substance/The level of expressed mRNA in the absence of chemical substance (yeast gene YOR355W): 1.0
- The level of expressed mRNA in the presence of chemical substance/The level of expressed mRNA in the absence of chemical substance (yeast gene YOR383C): 0.9
- The level of expressed mRNA in the presence of chemical substance/The level of expressed mRNA in the absence of chemical substance (yeast gene YPL089C): 1.4
- The level of expressed mRNA in the presence of chemical substance/The level of expressed mRNA in the absence of chemical substance (yeast gene YPL109C): 1.2
- The level of expressed mRNA in the presence of chemical substance/The level of expressed mRNA in the absence of chemical substance (yeast gene YPL149W): 0.8
- The level of expressed mRNA in the presence of chemical substance/The level of expressed mRNA in the absence of chemical substance (yeast gene YPL154C): 1.2
- The level of expressed mRNA in the presence of chemical substance/The level of expressed mRNA in the absence of chemical substance (yeast gene YPR103W): 1.7
- The level of expressed mRNA in the presence of chemical substance/The level of expressed mRNA in the absence of chemical substance (yeast gene YPR108W): 1.3
